These are literature values, as cited in patent publication US9744299B2, “Data processing device for an anesthesia device” (Dräger Medical GmbH, priority 2012, dated 2017).

SMILES strings stand for the structures. Like-named read-outs stand apart in the source and are kept apart here.

The subject of data set [1] is patients. The settings on record: steepness of the rise of the response surface; property of the drug.
Data set [2] concerns patients. As to conditions: effect-site concentration, 50% of patients tolerate "Shake and Shout".

Regarding `CC(C)c1cccc(C(C)C)c1O` [Propofol, propofol], the “h (Steepness)” value in the data set with patients [1] is 3.46. Moreover, the C50hyp in the data set on patients [2] (C50Prop) was 2.99 µg/mL.
Take `FCOC(C(F)(F)F)C(F)(F)F` [sevoflurane]: in the data set on patients [2] (C50Vol), the C50hyp is 1.47 vol. %.
